Results on one molecule are retold here after patent US20240174985A1, “METHOD FOR PRODUCING OVARIAN SOMATIC CELL-LIKE CELLS, AND METHOD FOR INDUCING DIFFERENTIATION OF PRIMATE PLURIPOTENT STEM CELLS INTO OVARIAN SOMATIC CELL-LIKE CELLS” (Kyoto University, priority 2021, published 2024).

For assay [1], the system named is cynomolgus monkey ES cells. The assay can be described thus: Quantitative PCR of marker genes in cells induced from cynomolgus monkey ES cells. It is filed as cell-based. Particulars: without BMP4 and with the addition of LDN in step 1. How it is done:
The relative expression level of each marker gene was confirmed using a PCR apparatus (BIO-RAD CFX384 Real-Time System) with the following primers and conditions. In the table, the primers of PAX3, OSR1, PAX2 #3, EMX2 #1, WT1 #2, and LHX9 #2 were used only in the experiment of FIG. 31C, and the primers of OSR1 #10, CXCL12×4, BMP2, and BMP4 were used only for the experiment in FIG. 57C. The GAPDH gene and the PPIA gene were measured as housekeeping genes, and relative values with the average of Ct values of the two genes as a control value are shown in the graph. Although not shown in the graph, ERCC-00096, ERCC-00009, ERCC-00022, and ERCC-00025 were used in combination as a control, except for the experiment of FIG. 31C.

The test system of assay [2] is cynomolgus monkey ES cells. Format: cell-based.
Setting [3] is: concentration of LDN increased in step 1 (30, 100, 1,000 nM).

Consider `c1ccc2c(-c3cnn4cc(-c5ccc(N6CCNCC6)cc5)cnc34)ccnc2c1` [LDN193189], for which, in assay [1], the “expression of FOXF1” value is “almost disappeared”. Also, in assay [2] (addition in step 1 (BMS493 1 μM), FACS day 14), the “induction of NR5A1-positive cells” value is reported as “no particular advantage”. In addition, the “improvement in the proportion of NR5A1-positive cells” value in assay [2] (addition of LDN in step 1 (30, 100, 1,000 nM), days 14, 17, 21) is “almost no improvement”. Further, in assay [2] (setting [3]), the “OSR1 expression at the end point of step 1 (day 2.2)” value is listed as “decreased”; the “increase in OSR1 expression in step 2 (days 4 and 6)” value is “became weaker”.
